The results in this text go back to patent US9056110B2, “Substituted pyrimidinone-phenyl-pyrimidinyl compounds” (Confluence Life Sciences, Inc., priority 2011, dated 2015).

The target in assay [1] is p38α/PRAK (Homo sapiens, UniProt Q16539). In words: p38α/PRAK cascade assay (IMAP, Hsp27 peptide phosphorylation). The following applies: Hsp27 peptide 1 μM, MgATP 10 μM, 120 minutes, read-out: p38/PRAK IC50. It is filed as biochemical. As for the experimental part: (§1) P38 inhibitory potency and P38/MK2 substrate selectivity: The novel, MK2 substrate-selective inhibitory mechanism of compounds is evaluated in enzyme assays that compare inhibitor potency in blocking p38/MK2 versus p38/PRAK induced phosphorylation of an HSP-27 derived peptide substrate. The ability of compounds to inhibit activated phospho-p38α is evaluated using a p38α/MK2 and a p38α/PRAK cascade assay format. The kinase activity of p38α is determined by its ability to phosphorylate and activate GST-MK2 or GST-PRAK. The kinase activity of activated MK2 and PRAK is followed by measuring the phosphorylation of a fluorescently-labeled, peptide substrate based on the sequence of Hsp27 (FITC-KKKALSRQLSVAA). The phosphorylation of the Hsp27 peptide is quantified using IMAP assay technology (Molecular Devices) and the Analyst HT plate reader (LJL Biosystems). Kinase reactions are carried out in a 384-well plate (Corning 3575) in 20 mM HEPES pH 7.5, 10 mM MgCl2, 0.0005% Tween-20, 0.01% BSA, 1 mM DTT, and 2% DMSO. The inhibitor concentration varies between 0.5-30,000 nM, while the Hsp27 peptide substrate and MgATP are held constant at 1 μM and 10 μM, respectively. Activated p38α is added to a final concentration of 20 pM for reactions with 1 nM nonphosphorylated 1 nM GST-MK2. For the p38α/PRAK cascade, unactivated GST-PRAK is held constant at 10 nM while p38α is added to a final concentration of […]. Kinase reactions are incubated at room temperature and quenched after 120 minutes by the addition of 1× Progressive Binding Buffer A containing 1×IMAP beads (IMAP FP Progressive Screening Express Kit, Molecular Devices Catalog Number R8127). Inhibitor potency is calculated by fitting dose-response data to the 4-parameter logistical IC50 equation. The substrate selectivity is calculated as a ratio of p38α/PRAK:p38α/MK2 IC50 values. A substrate selective inhibitor will have a p38α/PRAK:p38α/MK2 IC50 ratio of >2 while a classical p38 inhibitor will have a ratio of between 0.5-2. […] By way of example, the enhanced therapeutic benefit could be associated with a reduction in inhibition of p38 mediated anti-inflammatory functions, such as IL-10 production and TAB1 phosphorylation. An increased safety profile is expected based, for example, on a reduced inhibition of p38 substrates, such as PPARg and CDC25 phosphatase and PLA2 involved in gluconeogenesis and cell cycle regulation, respectively.

Assay [2] addresses p38α/MK2 (Homo sapiens, UniProt Q16539). In words: p38α/MK2 cascade assay (IMAP, Hsp27 peptide phosphorylation). It is filed as biochemical. On the procedure: as §1
The subject of assay [3] is TNFα. In words: LPS stimulated TNFα production in human PBMCs (ELISA). It is filed as cell-based. The following applies: PBMC, LPS 0.1 μg/ml, 18-24 hours, read-out: PBMC Cell, TNFα IC50. On the procedure: Evaluation of the potency and efficacy of p38 inhibitors to block cytokine production is carried out using the human U937 cell line and purified human PBMCs (peripheral blood mononuclear cells). The U937 human pre-monocytic cell line is obtained from the American Type Culture Collection (Rockville, Md.). These cells are differentiated to a monocytic/macrophage phenotype as described by Burnette (Burnette et al., (2009). SD0006: a potent, selective and orally available inhibitor of p38 kinase, Pharmacology 84(1):42-60). Differentiated U937 cells are seeded into 96-well tissue culture plates (200,000 cells/well) in complete media. After 24 hours, the cells are pretreated for 60 minutes in the presence or absence of compound and then stimulated with LPS (lipopolysaccharide) (0.1 μg/mL) for 4 hours. Culture media are then collected for determination of TNFα or IL-6 levels by ELISA. Human PBMCs are isolated from leukopacks as described by Burnette (Burnette et al., (2009), op. cit.). The cells are seeded into 96-well tissue culture plates (200,000 cells/well) in complete media. After a one hour recovery period at 37° C., 5% CO2, the cells are pretreated for 60 minutes in the presence or absence of compound and then stimulated with LPS (0.1 μg/ml) for 18-24 hours. Culture media are then collected for determination of TNFα and IL1β by ELISA. Cytokine concentrations are extrapolated from recombinant protein standard curves using a four-parameter logistic model and solving for IC50 after iterating to the best least-squares fit. p38 inhibitors will show a dose dependent inhibition of LPS stimulated TNFα, and IL6 in differentiated U937 cells and a dose dependent inhibition of LPS stimulated TNFα, IL6 and IL1b in human PBMCs. As drugs that down-regulate TNFα, IL6 and IL1b are efficacious in a number of autoimmune, autoinflammatory inflammatory, cardiovascular and oncological diseases, it would be expected that p38 drugs that inhibit these cytokines and other enzymes and mediators of disease will be effective drugs. Species compounds of Formula (I), described hereinabove, evaluated in this assay, are expected to provide a therapeutic benefit in the treatment of p38 kinase mediated diseases, including lymphoma and inflammation.

SMILES strings stand for the structures.

Chain of p38α/MK2 (Q16539 whole entry): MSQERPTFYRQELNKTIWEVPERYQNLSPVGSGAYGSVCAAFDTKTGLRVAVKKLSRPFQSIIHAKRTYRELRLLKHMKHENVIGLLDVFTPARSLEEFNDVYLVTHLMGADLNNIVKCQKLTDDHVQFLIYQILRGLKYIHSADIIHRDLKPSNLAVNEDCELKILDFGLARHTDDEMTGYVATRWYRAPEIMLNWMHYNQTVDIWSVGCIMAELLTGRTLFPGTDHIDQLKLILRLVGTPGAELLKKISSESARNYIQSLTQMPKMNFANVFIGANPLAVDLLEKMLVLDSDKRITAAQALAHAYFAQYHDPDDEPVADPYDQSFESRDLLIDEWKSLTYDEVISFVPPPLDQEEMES
Chain of p38α/MK2 (P49137 whole entry partner): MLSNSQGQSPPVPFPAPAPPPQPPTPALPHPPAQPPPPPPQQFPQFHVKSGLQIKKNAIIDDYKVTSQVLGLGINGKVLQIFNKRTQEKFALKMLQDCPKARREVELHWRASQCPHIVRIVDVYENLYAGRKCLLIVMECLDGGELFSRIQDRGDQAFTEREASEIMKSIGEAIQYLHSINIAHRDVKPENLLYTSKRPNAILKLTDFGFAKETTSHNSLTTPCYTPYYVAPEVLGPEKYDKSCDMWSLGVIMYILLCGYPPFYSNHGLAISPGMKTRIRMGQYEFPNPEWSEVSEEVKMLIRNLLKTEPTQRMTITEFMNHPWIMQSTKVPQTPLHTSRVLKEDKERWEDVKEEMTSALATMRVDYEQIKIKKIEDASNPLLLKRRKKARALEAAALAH
Chain of p38α/PRAK (Q16539 whole entry): as the sequence (Q16539 whole entry) above

For `Cc1cc(COc2nc(C)n(-c3cc(-c4ccnc(C(C)(C)O)n4)ccc3C)c(=O)c2Cl)c(F)cc1F` [Example 23, 5-chloro-6-((2,4-difluoro-5-methylbenzyl)oxy)-3-(5-(2-(2-hydroxypropan-2-yl)pyrimidin-4-yl)-2-methylphenyl)-2-methylpyrimidin-4(3H)-one], the IC50 in assay [1] was determined as 514 nM; in assay [2] (p38α/MK2 cascade, Hsp27 peptide 1 μM, MgATP 10 μM, 120 minutes, read-out: p38/MK2 IC50), 44 nM; in assay [3] it was 74 nM. The “Selectivity Ratio” value in assay [2] (ratio of p38α/PRAK:p38α/MK2 IC50 values) is 11.7.
